Converted amounts (≈) assume the structure as drawn. The source made the active and inactive calls. The rule behind the calls is not given here.
Legend:
Colletotrichum = experiment: Antifungal activity against Colletotrichum gossypii at 50 ug/mL by agar plate method; type: functional
Fusarium oxysporum = experiment: Antifungal activity against Fusarium oxysporum at 50 ug/mL by agar plate method; type: functional, organism-based
Fusarium graminearum = experiment: Antifungal activity against Gibberella zeae at 50 ug/mL by agar plate method; type: functional, organism-based
Botrytis = experiment: Antifungal activity against Botrytis […] at 50 ug/mL by agar plate method; type: functional
[1] = Antifungal activity against Dothiorella gregaria at 50 ug/mL by agar plate method; type: functional
Rhizoctonia solani [2] = experiment: Antifungal activity against Rhizoctonia solani by agar plate method; type: functional, organism-based
Rhizoctonia solani [3] = experiment: Ratio of triadimefon EC50 to compound EC50 for Rhizoctonia solani; type: functional

Structure (SMILES)	Activity (Colletotrichum)	Activity (Fusarium oxysporum)	Activity (Fusarium graminearum)	Activity (Botrytis)	Activity [1]	EC50 (Rhizoctonia solani [2])	Ratio EC50 (Rhizoctonia solani [3])
Cc1c(C(=O)N(C#N)Cc2ccc(F)cc2)ncn1Cc1ccc(F)cc1	inactive	inactive	inactive	inactive	inactive	20.8 µg/mL (≈ 56.8 µM)	–
Cc1c(C(=O)N(C#N)Cc2ccccc2)ncn1Cc1ccccc1	inactive	inactive	inactive	inactive	inactive	7.74 µg/mL (≈ 23.4 µM)	–
Cc1c(C(=O)N(C#N)Cc2ccccc2)ncn1Cc1ccc(F)cc1	inactive	inactive	inactive	inactive	inactive	31.3 µg/mL (≈ 89.9 µM)	–
Cc1c(C(=O)N(C#N)Cc2ccccc2F)ncn1Cc1cccc([N+](=O)[O-])c1	inactive	inactive	inactive	inactive	inactive	6.67 µg/mL (≈ 17 µM)	–
Cc1ccc(Cn2cnc(C(=O)N(C#N)CCCc3ccccc3)c2C)cc1	inactive	inactive	inactive	inactive	inactive	4.64 µg/mL (≈ 12.5 µM)	–
Cc1ccc(Cn2cnc(C(=O)N(C#N)Cc3ccccc3)c2C)cc1	inactive	inactive	inactive	inactive	inactive	3.04 µg/mL (≈ 8.83 µM)	–
CC(C)(C)C(=O)C(Oc1ccc(Cl)cc1)n1cncn1 (stereo not drawn) [TRIADIMEFON]	–	–	–	–	–	14.7 µg/mL (≈ 50 µM)	–
Cc1ccc(CN(C#N)C(=O)c2ncn(Cc3ccc(C)cc3)c2C)cc1	inactive	inactive	inactive	inactive	inactive	15.8 µg/mL (≈ 44.1 µM)	–
Cc1c(C(=O)N(C#N)Cc2ccc(F)cc2)ncn1Cc1cccc([N+](=O)[O-])c1	inactive	inactive	inactive	inactive	inactive	3.61 µg/mL (≈ 9.18 µM)	–
CCCCn1cnc(C(=O)N(C#N)Cc2ccccc2F)c1C	inactive	inactive	inactive	inactive	inactive	13.3 µg/mL (≈ 42.2 µM)	–
Cc1c(C(=O)N(C#N)Cc2ccc(F)cc2F)ncn1Cc1ccc(F)cc1	inactive	inactive	inactive	inactive	inactive	2.63 µg/mL (≈ 6.84 µM)	5.6
COC(=O)c1ccccc1CN(C#N)C(=O)c1ncn(Cc2ccc(F)cc2)c1C	inactive	inactive	inactive	inactive	inactive	13.3 µg/mL (≈ 32.6 µM)	–
CCCCN(C#N)C(=O)c1ncn(CCCC)c1C	inactive	inactive	inactive	inactive	inactive	9.01 µg/mL (≈ 34.3 µM)	–
Cc1ccc(Cn2cnc(C(=O)N(C#N)Cc3ccccc3F)c2C)cc1	inactive	inactive	inactive	inactive	inactive	8.76 µg/mL (≈ 24.2 µM)	–
CCCCn1cnc(C(=O)N(C#N)Cc2ccccc2)c1C	inactive	inactive	inactive	inactive	inactive	7.98 µg/mL (≈ 26.9 µM)	–
Cc1ccc(Cn2cnc(C(=O)N(C#N)Cc3ccc(F)cc3)c2C)cc1	inactive	inactive	inactive	inactive	inactive	3.04 µg/mL (≈ 8.39 µM)	–
Cc1ccc(Cn2cnc(C(=O)N(C#N)Cc3ccccc3Cl)c2C)cc1	inactive	inactive	inactive	inactive	inactive	3.53 µg/mL (≈ 9.32 µM)	–

Reference: ChEMBL document CHEMBL1944505, “Novel synthetic methods for N-cyano-1H-imidazole-4-carboxamides and their fungicidal activity” (Bioorg Med Chem Lett, 2012)
